Where a name gives a salt, the structure may show the parent alone.

Usually inhibition stands for how much of the control response was suppressed.

The target in the first assay is T1, untagged HECT of NEDD4 wild-type (WT) (E3 ligase) (Homo sapiens, UniProt P46934).
T1 construct: untagged HECT of NEDD4 wild-type (WT) (E3 ligase); made in house
T1 sequence (P46934 519-900 isoform P46934-4 limits assumed): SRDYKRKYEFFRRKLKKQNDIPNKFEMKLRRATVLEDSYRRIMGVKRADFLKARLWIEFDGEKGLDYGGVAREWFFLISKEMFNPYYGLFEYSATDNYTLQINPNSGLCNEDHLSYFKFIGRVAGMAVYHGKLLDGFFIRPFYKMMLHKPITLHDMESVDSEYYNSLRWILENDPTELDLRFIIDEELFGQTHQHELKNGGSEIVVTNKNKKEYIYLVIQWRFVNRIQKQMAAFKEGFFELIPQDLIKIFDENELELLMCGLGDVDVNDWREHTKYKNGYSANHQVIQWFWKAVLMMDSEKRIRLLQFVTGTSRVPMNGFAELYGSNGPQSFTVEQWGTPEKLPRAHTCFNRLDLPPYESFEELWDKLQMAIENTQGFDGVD
The assay is described as follows: In vitro ubiquitination assay TR-FRET based (self-ubiquitination of NEDD4). The class given is biochemical. The settings on record: FIG. 1; HECT NEDD4 WT; concentrations indicated in the figure. A digest of the protocol:
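Mix of E1, His-UBE2D3 and untagged NEDD4 HECT (final 30, 350, 50 nM) with Eu-cryptate/Cy5/unlabelled ubiquitin in pH 7.6 Tris buffer, compounds (100–0.005 μM dilution series) pre-incubated 1 h, then started with ATP. 665/620 nm TR-FRET followed 120 min; % inhibition from AUC versus DMSO, no-ATP background.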
Background: TR-FRET usually uses a lanthanide donor and a delayed reading to cut background.
Consider `CCOC(=O)/C=C/CNCCCCN1c2ccccc2CCc2ccc(Cl)cc21.O=C(O)/C=C\C(=O)O` [Compound 12, Ethyl (E)-4-[4-(3-chloro-10,11-dihydro-5H-dibenzo[b,f]azepin-5-yl)butylamino]but-2-enoate maleate], for which the “inhibition of enzymatic activity, TR-FRET kinetic assay (% of signal/background during the time)” value is “dose dependent inhibition of enzymatic activity”.

Still in this assay, the particulars now being: at 11 μM; pre-incubated for 1 hour; AUC of 120 minutes kinetic; read-out: percentages of inhibition (NEDD4).
Turning to `CCOC(=O)/C=C/CCNCCCN1c2ccccc2CCc2ccc(Cl)cc21` [Compound 5, Ethyl (E)-5-[3-(3-chloro-10,11-dihydro-5H-dibenzo[b,f]azepin-5-yl)propylamino]pent-2-enoate maleate], the inhibition at 11 µM was more than 50%. Turning to `CCOC(=O)/C=C/CNCCCCN1c2ccccc2CCc2ccc(Cl)cc21.O=C(O)/C=C\C(=O)O` [Compound 12, Ethyl (E)-4-[4-(3-chloro-10,11-dihydro-5H-dibenzo[b,f]azepin-5-yl)butylamino]but-2-enoate maleate], the inhibition at 11 µM was more than 50%. Take `CON(C)C(=O)/C=C/CN(C)CCCCN1c2ccccc2CCc2ccc(Cl)cc21` [Compound 9, (E)-4-[4-(3-Chloro-10,11-dihydro-5H-dibenzo[b,f]azepin-5-yl)butyl-methyl-amino]-N-methoxy-N-methyl-but-2-enamide]: the inhibition at 11 µM was more than 50%.

With `CCOC(=O)/C=C/CNCCCCN1c2cc(Cl)ccc2C(=O)N(Cc2ccccc2)c2ccccc21` [Compound 56, Ethyl (E)-4-((4-(10-benzyl-3-chloro-11-oxo-10,11-dihydro-5H-dibenzo[b,e][1,4]diazepin-5-yl)butyl)amino)but-2-enoate maleate], the inhibition at 11 µM is more than 50%.

Regarding `CONC(=O)/C=C/CN(C)CCCCN1c2ccccc2CCc2ccc(Cl)cc21` [Compound 85, (E)-4-[4-(3-Chloro-10,11-dihydro-5H-dibenzo[b,f]azepin-5-yl)butyl-methyl-amino]-N-methoxy-but-2-enamide maleate], the inhibition at 11 µM is more than 50%.

With `C#CCON(C)C(=O)/C=C/CN(C)CCCCN1c2ccccc2CCc2ccc(Cl)cc21` [Compound 77, (E)-4-[4-(3-Chloro-10,11-dihydro-5H-dibenzo[b,f]azepin-5-yl)butyl-methyl-amino]-N-methyl-N-prop-2-ynoxy-but-2-enamide maleate], the inhibition at 11 µM is more than 50%. Still for that read-out and setting: under `CN(C/C=C/C#N)CCCCN1c2cc(Cl)ccc2C(=O)N(Cc2ccccc2)c2ccccc21` [Compound 61, (E)-4-{[4-(10-benzyl-3-chloro-11-oxo-10,11-dihydro-5H-dibenzo[b,e][1,4]diazepin-5-yl)butyl](methyl)amino}but-2-enenitrile maleate] stands more than 50%; under `CCOC(=O)/C=C/CNCCCCN1c2ccccc2C(=O)N(Cc2ccccc2)c2ccc(Cl)cc21` [Compound 45, Ethyl (E)-4-{[4-(10-benzyl-7-chloro-11-oxo-10,11-dihydro-5H-dibenzo[b,e][1,4]diazepin-5-yl)butyl]amino}but-2-enoate maleate], more than 50%. With `CN(C/C=C/C(=O)OCCOCCOCCOCCNC(=O)CCCC[C@@H]1SC[C@@H]2NC(=O)N[C@@H]21)CCCCN1c2ccccc2CCc2ccc(Cl)cc21` [Compound 94, 2-[2-(2-{2-[5-((3aS,4S,6aR)-2-Oxo-hexahydro-thieno[3,4-d]imidazol-4-yl)-pentanoylamino]-ethoxy}-ethoxy)-ethoxy]-ethyl (E)-4-{[4-(3-chloro-10,11-dihydro-dibenzo[b,f]azepin-5-yl)-butyl]-methyl-amino}but-2-enoate], the inhibition at 11 µM is more than 50%. Take `CCOC(=O)/C=C/CNCCCCN1c2ccccc2C(=O)N(C)c2ccc(Cl)cc21` [Compound 29, Ethyl (E)-4-{[4-(7-chloro-10-methyl-11-oxo-10,11-dihydro-5H-dibenzo[b,e][1,4]diazepin-5-yl)butyl]amino}but-2-enoate maleate]: the inhibition at 11 µM was more than 50%. For `CONC(=O)/C=C/CNCCCCN1c2ccccc2CCc2ccc(Cl)cc21` [Compound 78, (E)-4-[4-(3-Chloro-10,11-dihydro-5H-dibenzo[b,f]azepin-5-yl)butylamino]-N-methoxy-but-2-enamide maleate], the inhibition at 11 µM was more than 50%. For the compound `CCOC(=O)/C=C/CNCCCCN1c2cc(Cl)ccc2C(=O)N(C)c2ccccc21` [Compound 42, Ethyl (E)-4-{[4-(3-chloro-10-methyl-11-oxo-10,11-dihydro-5H-dibenzo[b,e][1,4]diazepin-5-yl)butyl]amino}but-2-enoate maleate], the inhibition at 11 µM is more than 50%.

Turning to `COC(=O)/C=C/CN(C)CCCCN1c2cc(Cl)ccc2C(=O)N(Cc2ccccc2)c2ccccc21` [Compound 58, Methyl (E)-4-{[4-(10-benzyl-3-chloro-11-oxo-10,11-dihydro-5H-dibenzo[b,e][1,4]diazepin-5-yl)butyl](methyl)amino}but-2-enoate maleate], the inhibition at 11 µM was more than 50%.
